# Test results: patent US9133235B2, “Macrocyclic antagonists of the motilin receptor for treatment of gastrointestinal dysmotility disorders” (Ocera Therapeutics, Inc., priority 2006, dated 2015)
# Experiments:
# [1] = test system: Caco-2 cells; test: Caco-2 permeability; assay type: in vitro ADME, human
# From the text: H. Determination of Caco-2 Permeability
# The Caco-2 cell line, derived from a human colorectal carcinoma, has become an established in vitro model for the prediction of drug absorption across the human intestine. (Sun, D.; Yu, L. X.; Hussain, M. A.; Wall, D. A.; Smith, R. L.; Amidon, G. L. Curr. Opin. Drug Discov. Devel. 2004, 7, 75-85; Bergstrom, C. A. Basic Clin. Pharmacol. Toxicol. 2005, 96, 156-61; Balimane, P. V.; Han, Y. H.; Chong, S. AAPS J 2006, 8, E1-13; Shah, P.; Jogani, V.; Bagchi, T.; Misra, A. Biotechnol. Prog. 2006, 22, 186-198) When cultured on semi-permeable membranes, Caco-2 cells differentiate into a highly functionalized epithelial barrier with remarkable morphological and biochemical similarity to the small intestinal columnar epithelium. Fully differentiated cell monolayers can be used to assess the membrane transport properties of novel compounds.
# Permeability across the Caco-2 cell layer was determined by growing the cells on a membrane placed between two (donor and acceptor) chambers. Drug candidates are typically added to the apical (A) side of the cell layer and their appearance in the basolateral (B) side is measured over incubation time. Permeability in this direction represents intestinal absorption. Permeability may also be determined from the basolateral to the apical side of the Caco-2 cell. […]
# Permeability (10 μM) for compounds of the invention in the apical to basolateral and basolateral to apical direction were tested in duplicate. Samples will be collected from the donor and acceptor chambers at the beginning (0 min) and following 60 min of incubation at 37° C. and stored frozen at −70° C. until bioanalysis. Samples for each test compound generated from the Caco-2 permeability assay were further analyzed by LC-MS-MS. The permeability of [^3H]-mannitol and [^3H]-propranolol were determined in parallel as controls.
# The permeability coefficient (Papp) of each compound and radiolabeled standard was determined using the following equation:
# [formula] where dQ/dT represents the permeability rate, Ci denotes the initial concentration in the donor compartment, and A represents the surface area of the filter. Ci is determined from the mean concentration of duplicate samples taken prior to addition to the donor compartment. Permeability rates were calculated by plotting the cumulative amount of compound measured in the acceptor compartment over time and determining the slope of the line by linear regression analysis. The duplicate and mean apical to basolateral and basolateral to apical Papp's were reported for each compound and standard.
# [2] = biological target: human motilin receptor (Homo sapiens, UniProt O43193); test: Aequorin functional assay (motilin receptor); assay type: cell-based; set-up: host or cells: CHO-K1 cells co-expressing Gα16 and mitochondrially targeted Aequorin; settings: functional activity, antagonist testing vs motilin 0.5 nM (EC80)
# Chain of human motilin receptor (O43193 whole entry): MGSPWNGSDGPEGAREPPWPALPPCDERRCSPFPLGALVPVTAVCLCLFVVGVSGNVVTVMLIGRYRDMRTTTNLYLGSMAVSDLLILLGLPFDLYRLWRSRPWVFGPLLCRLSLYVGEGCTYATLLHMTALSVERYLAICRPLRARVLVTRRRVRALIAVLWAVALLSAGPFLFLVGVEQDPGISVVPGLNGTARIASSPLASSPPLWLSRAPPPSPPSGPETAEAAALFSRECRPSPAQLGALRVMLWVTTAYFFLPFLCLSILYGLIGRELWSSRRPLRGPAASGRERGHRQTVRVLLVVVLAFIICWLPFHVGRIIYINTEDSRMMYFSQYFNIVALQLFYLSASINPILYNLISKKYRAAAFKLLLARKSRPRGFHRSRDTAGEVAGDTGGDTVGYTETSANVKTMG
# Description: B. Aequorin Functional Assay (Motilin Receptor)
# The evaluation of compounds of the invention for functional activity can be conducted according to literature methods or as described below. (Carreras, C. W.; Siani, M. A.; Santi, D. V.; Dillon, S. B. Anal. Biochem. 2002, 300, 146-151.)
# • Membranes were prepared using AequoScreen™ (EUROSCREEN, Belgium) cell lines expressing the human motilin receptor (cell line ES-380-A; receptor accession #AF034632). This cell line is constructed by transfection of the human motilin receptor into CHO-K1 cells co-expressing Gα16 and the mitochondrially targeted Aequorin (Ref. #ES-WT-A5). • Motilin (Bachem, #H-4385) • Assay buffer: DMEM-F12 (Dulbeccoe's Modified Eagles Medium) with 15 mM HEPES and 0.1% BSA (pH 7.0) • Coelenterazine (Molecular Probes™, Leiden, The Netherlands) Final Test Concentrations (N=5) for Compounds: • 10, 3.16, 1.0, 0.316, 0.10 μM. Compound Handling:
# Compounds were provided as dry films at a quantity of approximately 1.2 μmol in pre-formatted 96-well plates. Compounds were dissolved in 100% DMSO at a concentration of 10 mM and stored at −20° C. until further use. Daughter plates were prepared at a concentration of 500 μM in 30% DMSO with 0.1% BSA and stored at −20° C. until testing. On the test day, compounds were allowed to thaw at room temperature and than diluted in assay buffer according to the desired test concentrations. Under these conditions, the maximum final DMSO concentration in the assay was 0.6%.
# Cells are collected from culture plates with Ca^2+ and Mg^2+-free phosphate buffered saline (PBS) supplemented with 5 mM EDTA, pelleted for 2 minutes at 1000×g, resuspended in assay buffer (see above) at a density of 5×10^6 cells/mL and incubated overnight in the presence of 5 μM coelenterazine. After loading, cells were diluted with assay buffer to a concentration of 5×10^5 cells/mL.
# For agonist testing, 50 μL of the cell suspension was mixed with 50 μL of the appropriate concentration of test compound or motilin (reference agonist) in 96-well plates (duplicate samples). The emission of light resulting from receptor activation was recorded using the Functional Drug Screening System 6000 ‘FDSS 6000’ (Hamamatsu Photonics K. K., Japan).
# For antagonist testing, an approximate EC80 concentration of motilin (i.e. 0.5 nM; 100 μL) was injected onto the cell suspension containing the test compounds (duplicate samples) 15-30 minutes after the end of agonist testing and the consequent emission of light resulting from receptor activation was measured as described in the paragraph above.
# Results are expressed as Relative Light Units (RLU). Concentration response curves were analyzed using GraphPad™ Prism® (GraphPad Software, San Diego, Calif.) by non-linear regression analysis (sigmoidal dose-response) based on the equation E=Emax/(1+EC50/C)n where E is the measured RLU value at a given agonist concentration (C), Emax is the maximal response, EC50 is the concentration producing 50% stimulation and n is the slope index. For agonist testing, results for each concentration of test compound were expressed as percent activation relative to the signal induced by motilin at a concentration equal to the EC80 (i.e. 0.5 nM). For antagonist testing, results for each concentration of test compound were expressed as percent inhibition relative to the signal induced by motilin at a concentration equal to the EC80 (i.e. 0.5 nM).
"Papp A to B ([1]; 10 μM, apical to basolateral, 60 min, 37° C.)","Papp B to A ([1]; 10 μM, basolateral to apical, 60 min, 37° C.)",B to A/A to B ([1]; ratio of Papp),IC50 [2],Structure (SMILES)
5 cm/sec × 10^−6,11 cm/sec × 10^−6,2,≤ 10 nM,CC(C)[C@H]1NC(=O)[C@@H](Cc2cccc(C(F)(F)F)c2)NCCOc2ccccc2CCCNC(=O)[C@H](CN(C)C)NC1=O [Compound 502]
,,,≤ 1 nM,CCC[C@@H]1NC(=O)[C@@H](C(C)C)NC(=O)[C@@H](Cc2ccc(O)c(Cl)c2)N[C@@H](C)COc2ccccc2CCCNC1=O [Compound 552]
